Test results from patent US20230085307A1, “PYRIDAZINONE COMPOUND AND HERBICIDE” (NISSAN CHEMICAL CORPORATION, priority 2019, published 2023).

How the values were obtained:
Italian ryegrass [1] = assay: Test Example 5: herbicidal effect by foliage application, plastic box (Table 20, symbol K); assay type: in vivo, Italian ryegrass (Lolium multiflorum); details: foliage application, 320 g/ha, three weeks after application
Procedure, shortened: (§1)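 Post-emergence foliar test in sterilized diluvial soil. Compound applied as water-diluted emulsion at a predetermined rate to 14-day-old plants; evaluation at three weeks.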

wild oat [2] = assay: Test Example 5: herbicidal effect by foliage application, plastic box (Table 20, symbol I); assay type: in vivo, wild oat (Avena fatua); details: foliage application, 320 g/ha, three weeks after application
Procedure, shortened: as §1

velvetleaf [3] = assay: Test Example 5: herbicidal effect by foliage application, plastic box (Table 20, symbol M); assay type: in vivo, velvetleaf (Abutilon theophrasti); details: foliage application, 320 g/ha, three weeks after application
Procedure, shortened: as §1

redroot pigweed [4] = assay: Test Example 4: herbicidal effect by soil treatment (Table 19, symbol N); assay type: in vivo, redroot pigweed (Amaranthus retroflexus); details: amount of applied herbicide 320 g/ha
Procedure, shortened: (§2)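 Scoring uses the grading scale of an earlier test, three weeks post-application. Treatment consists of spraying a diluted emulsion formulation across the surface of sterilized diluvial soil in which seeds are buried near 1.5 cm deep; boxes are kept in a greenhouse between 25° C. and 30° C.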

Chinese sprangletop = assay: Test Example 3: herbicidal effect by foliage application, Wagner pot (Table 18, symbol D); assay type: in vivo, chinese sprangletop (Leptochloa chinensis)
Procedure, shortened: (§3)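 Plants were sown in alluvial soil held under 0.1–0.5 cm standing water and grown 14 days in a greenhouse at 25–30 °C. An emulsifiable formulation, water-diluted to the set dose, was then sprayed onto the foliage, and effects were scored three weeks later using previously defined criteria.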

barnyard grass [5] = assay: Test Example 3: herbicidal effect by foliage application, Wagner pot (Table 18, symbol H); assay type: in vivo, barnyard grass (Echinochloa crus-galli)
Procedure, shortened: as §3

persian speedwell [6] = assay: Test Example 5: herbicidal effect by foliage application, plastic box (Table 20, symbol R); assay type: in vivo, Persian speedwell (Veronica persica); details: foliage application, 320 g/ha, three weeks after application
Procedure, shortened: as §1

blackgrass [7] = assay: Test Example 5: herbicidal effect by foliage application, plastic box (Table 20, symbol J); assay type: in vivo, blackgrass (Alopecurus myosuroides); details: foliage application, 320 g/ha, three weeks after application
Procedure, shortened: as §1

false cleavers [8] = assay: Test Example 4: herbicidal effect by soil treatment (Table 19, symbol Q); assay type: in vivo, false cleavers (Galium spurium); details: amount of applied herbicide 320 g/ha
Procedure, shortened: as §2

green foxtail [9] = assay: Test Example 4: herbicidal effect by soil treatment (Table 19, symbol G); assay type: in vivo, green foxtail (Setaria viridis); details: amount of applied herbicide 320 g/ha
Procedure, shortened: as §2

Italian ryegrass [10] = assay: Test Example 4: herbicidal effect by soil treatment (Table 19, symbol K); assay type: in vivo, Italian ryegrass (Lolium multiflorum); details: amount of applied herbicide 320 g/ha
Procedure, shortened: as §2

lambsquarters [11] = assay: Test Example 5: herbicidal effect by foliage application, plastic box (Table 20, symbol O); assay type: in vivo, lambsquarters (Chenopodium album); details: foliage application, 320 g/ha, three weeks after application
Procedure, shortened: as §1

barnyard grass [12] = assay: Test Example 5: herbicidal effect by foliage application, plastic box (Table 20, symbol H); assay type: in vivo, barnyard grass (Echinochloa crus-galli); details: foliage application, 320 g/ha, three weeks after application
Procedure, shortened: as §1

southern crabgrass [13] = assay: Test Example 4: herbicidal effect by soil treatment (Table 19, symbol F); assay type: in vivo, southern crabgrass (Digitaria ciliaris); details: amount of applied herbicide 320 g/ha
Procedure, shortened: as §2

persian speedwell [14] = assay: Test Example 4: herbicidal effect by soil treatment (Table 19, symbol R); assay type: in vivo, Persian speedwell (Veronica persica); details: amount of applied herbicide 320 g/ha
Procedure, shortened: as §2

false cleavers [15] = assay: Test Example 5: herbicidal effect by foliage application, plastic box (Table 20, symbol Q); assay type: in vivo, false cleavers (Galium spurium); details: foliage application, 320 g/ha, three weeks after application
Procedure, shortened: as §1

velvetleaf [16] = assay: Test Example 4: herbicidal effect by soil treatment (Table 19, symbol M); assay type: in vivo, velvetleaf (Abutilon theophrasti); details: amount of applied herbicide 320 g/ha
Procedure, shortened: as §2

wild oat [17] = assay: Test Example 4: herbicidal effect by soil treatment (Table 19, symbol I); assay type: in vivo, wild oat (Avena fatua); details: amount of applied herbicide 320 g/ha
Procedure, shortened: as §2

chickweed [18] = assay: Test Example 4: herbicidal effect by soil treatment (Table 19, symbol P); assay type: in vivo, common chickweed (Stellaria media); details: amount of applied herbicide 320 g/ha
Procedure, shortened: as §2

lambsquarters [19] = assay: Test Example 4: herbicidal effect by soil treatment (Table 19, symbol O); assay type: in vivo, lambsquarters (Chenopodium album); details: amount of applied herbicide 320 g/ha
Procedure, shortened: as §2

redroot pigweed [20] = assay: Test Example 5: herbicidal effect by foliage application, plastic box (Table 20, symbol N); assay type: in vivo, redroot pigweed (Amaranthus retroflexus); details: foliage application, 320 g/ha, three weeks after application
Procedure, shortened: as §1

windgrass [21] = assay: Test Example 4: herbicidal effect by soil treatment (Table 19, symbol L); assay type: in vivo, windgrass (Apera spica-venti); details: amount of applied herbicide 320 g/ha
Procedure, shortened: as §2

southern crabgrass [22] = assay: Test Example 5: herbicidal effect by foliage application, plastic box (Table 20, symbol F); assay type: in vivo, southern crabgrass (Digitaria ciliaris); details: foliage application, 320 g/ha, three weeks after application
Procedure, shortened: as §1

rice flat sedge = assay: Test Example 3: herbicidal effect by foliage application, Wagner pot (Table 18, symbol E); assay type: in vivo, rice flat sedge (Cyperus iria)
Procedure, shortened: as §3

barnyard grass [23] = assay: Test Example 4: herbicidal effect by soil treatment (Table 19, symbol H); assay type: in vivo, barnyard grass (Echinochloa crus-galli); details: amount of applied herbicide 320 g/ha
Procedure, shortened: as §2

chickweed [24] = assay: Test Example 5: herbicidal effect by foliage application, plastic box (Table 20, symbol P); assay type: in vivo, common chickweed (Stellaria media); details: foliage application, 320 g/ha, three weeks after application
Procedure, shortened: as §1

windgrass [25] = assay: Test Example 5: herbicidal effect by foliage application, plastic box (Table 20, symbol L); assay type: in vivo, windgrass (Apera spica-venti); details: foliage application, 320 g/ha, three weeks after application
Procedure, shortened: as §1

blackgrass [26] = assay: Test Example 4: herbicidal effect by soil treatment (Table 19, symbol J); assay type: in vivo, blackgrass (Alopecurus myosuroides); details: amount of applied herbicide 320 g/ha
Procedure, shortened: as §2

green foxtail [27] = assay: Test Example 5: herbicidal effect by foliage application, plastic box (Table 20, symbol G); assay type: in vivo, green foxtail (Setaria viridis); details: foliage application, 320 g/ha, three weeks after application
Procedure, shortened: as §1

[28] = amount of applied herbicide 320 g/ha

## CCCC(=O)Oc1c(C)nn(C)c(=O)c1-c1c(-c2ccc(F)cc2)sc2cc(Cl)ccc12 [3-032]
Italian ryegrass [1]
  K: Italian ryegrass, herbicidal effect grade: 4 (Herbicidal rate of 70% or more and less than 90%)
Wild oat [2]
  I: wild oat, herbicidal effect grade: 5 (Herbicidal rate of 90% or more (almost completely withered))
Velvetleaf [3]
  M: velvetleaf, herbicidal effect grade: 4 (Herbicidal rate of 70% or more and less than 90%)
Redroot pigweed [4]
  N: redroot pigweed, herbicidal effect grade: 4 (Herbicidal rate of 70% or more and less than 90%)
Chinese sprangletop; [28]
  herbicidal effect on D: Chinese sprangletop: 3 (Herbicidal rate of 40% or more and less than 70%)
Barnyard grass [5]; [28]
  herbicidal effect on H: barnyard grass: 5 (Herbicidal rate of 90% or more (almost completely withered))
Persian speedwell [6]
  R: persian speedwell, herbicidal effect grade: 5 (Herbicidal rate of 90% or more (almost completely withered))
Blackgrass [7]
  J: blackgrass, herbicidal effect grade: 4 (Herbicidal rate of 70% or more and less than 90%)
False cleavers [8]
  Q: false cleavers, herbicidal effect grade: 3 (Herbicidal rate of 40% or more and less than 70%)
Green foxtail [9]
  G: green foxtail, herbicidal effect grade: 0 (Herbicidal rate of 5% or less (almost no effect))
Italian ryegrass [10]
  K: Italian ryegrass, herbicidal effect grade: 0 (Herbicidal rate of 5% or less (almost no effect))
Lambsquarters [11]
  O: lambsquarters, herbicidal effect grade: 4 (Herbicidal rate of 70% or more and less than 90%)
Barnyard grass [12]
  H: barnyard grass, herbicidal effect grade: 4 (Herbicidal rate of 70% or more and less than 90%)
Southern crabgrass [13]
  F: southern crabgrass, herbicidal effect grade: 0 (Herbicidal rate of 5% or less (almost no effect))
Persian speedwell [14]
  R: persian speedwell, herbicidal effect grade: 5 (Herbicidal rate of 90% or more (almost completely withered))
False cleavers [15]
  Q: false cleavers, herbicidal effect grade: 0 (Herbicidal rate of 5% or less (almost no effect))
Velvetleaf [16]
  M: velvetleaf, herbicidal effect grade: 0 (Herbicidal rate of 5% or less (almost no effect))
Wild oat [17]
  I: wild oat, herbicidal effect grade: 0 (Herbicidal rate of 5% or less (almost no effect))
Chickweed [18]
  P: chickweed, herbicidal effect grade: 4 (Herbicidal rate of 70% or more and less than 90%)
Lambsquarters [19]
  O: lambsquarters, herbicidal effect grade: 4 (Herbicidal rate of 70% or more and less than 90%)
Redroot pigweed [20]
  N: redroot pigweed, herbicidal effect grade: 5 (Herbicidal rate of 90% or more (almost completely withered))
Windgrass [21]
  L: windgrass, herbicidal effect grade: 3 (Herbicidal rate of 40% or more and less than 70%)
Southern crabgrass [22]
  F: southern crabgrass, herbicidal effect grade: 4 (Herbicidal rate of 70% or more and less than 90%)
Rice flat sedge; [28]
  herbicidal effect on E: rice flat sedge: 3 (Herbicidal rate of 40% or more and less than 70%)
Barnyard grass [23]
  H: barnyard grass, herbicidal effect grade: 0 (Herbicidal rate of 5% or less (almost no effect))
Chickweed [24]
  P: chickweed, herbicidal effect grade: 5 (Herbicidal rate of 90% or more (almost completely withered))
Windgrass [25]
  L: windgrass, herbicidal effect grade: 5 (Herbicidal rate of 90% or more (almost completely withered))
Blackgrass [26]
  J: blackgrass, herbicidal effect grade: 0 (Herbicidal rate of 5% or less (almost no effect))
Green foxtail [27]
  G: green foxtail, herbicidal effect grade: 4 (Herbicidal rate of 70% or more and less than 90%)

## CCCC(=O)Oc1c(C)nn(C)c(=O)c1-c1c(-c2ccc(OC)cc2)sc2cc(Cl)ccc12 [3-038]
Italian ryegrass [1]
  K: Italian ryegrass, herbicidal effect grade: 0 (Herbicidal rate of 5% or less (almost no effect))
Wild oat [2]
  I: wild oat, herbicidal effect grade: 0 (Herbicidal rate of 5% or less (almost no effect))
Velvetleaf [3]
  M: velvetleaf, herbicidal effect grade: 3 (Herbicidal rate of 40% or more and less than 70%)
Redroot pigweed [4]
  N: redroot pigweed, herbicidal effect grade: 1 (Herbicidal rate of 5% or more and less than 20%)
Chinese sprangletop; 320 g/ha
  herbicidal effect on Chinese sprangletop (D): 1 (Herbicidal rate of 5% or more and less than 20%)
Barnyard grass [5]; 320 g/ha
  herbicidal effect on barnyard grass (H): 3 (Herbicidal rate of 40% or more and less than 70%)
Persian speedwell [6]
  R: persian speedwell, herbicidal effect grade: 3 (Herbicidal rate of 40% or more and less than 70%)
Blackgrass [7]
  J: blackgrass, herbicidal effect grade: 0 (Herbicidal rate of 5% or less (almost no effect))
False cleavers [8]
  Q: false cleavers, herbicidal effect grade: 0 (Herbicidal rate of 5% or less (almost no effect))
Green foxtail [9]
  G: green foxtail, herbicidal effect grade: 0 (Herbicidal rate of 5% or less (almost no effect))
Italian ryegrass [10]
  K: Italian ryegrass, herbicidal effect grade: 0 (Herbicidal rate of 5% or less (almost no effect))
Lambsquarters [11]
  O: lambsquarters, herbicidal effect grade: 3 (Herbicidal rate of 40% or more and less than 70%)
Barnyard grass [12]
  H: barnyard grass, herbicidal effect grade: 0 (Herbicidal rate of 5% or less (almost no effect))
Southern crabgrass [13]
  F: southern crabgrass, herbicidal effect grade: 0 (Herbicidal rate of 5% or less (almost no effect))
Persian speedwell [14]
  R: persian speedwell, herbicidal effect grade: 2 (Herbicidal rate of 20% or more and less than 40%)
False cleavers [15]
  Q: false cleavers, herbicidal effect grade: 0 (Herbicidal rate of 5% or less (almost no effect))
Velvetleaf [16]
  M: velvetleaf, herbicidal effect grade: 0 (Herbicidal rate of 5% or less (almost no effect))
Wild oat [17]
  I: wild oat, herbicidal effect grade: 0 (Herbicidal rate of 5% or less (almost no effect))
Chickweed [18]
  P: chickweed, herbicidal effect grade: 1 (Herbicidal rate of 5% or more and less than 20%)
Lambsquarters [19]
  O: lambsquarters, herbicidal effect grade: 3 (Herbicidal rate of 40% or more and less than 70%)
Redroot pigweed [20]
  N: redroot pigweed, herbicidal effect grade: 1 (Herbicidal rate of 5% or more and less than 20%)
Windgrass [21]
  L: windgrass, herbicidal effect grade: 0 (Herbicidal rate of 5% or less (almost no effect))
Southern crabgrass [22]
  F: southern crabgrass, herbicidal effect grade: 0 (Herbicidal rate of 5% or less (almost no effect))
Rice flat sedge; 320 g/ha
  herbicidal effect on rice flat sedge (E): 3 (Herbicidal rate of 40% or more and less than 70%)
Barnyard grass [23]
  H: barnyard grass, herbicidal effect grade: 0 (Herbicidal rate of 5% or less (almost no effect))
Chickweed [24]
  P: chickweed, herbicidal effect grade: 3 (Herbicidal rate of 40% or more and less than 70%)
Windgrass [25]
  L: windgrass, herbicidal effect grade: 0 (Herbicidal rate of 5% or less (almost no effect))
Blackgrass [26]
  J: blackgrass, herbicidal effect grade: 0 (Herbicidal rate of 5% or less (almost no effect))
Green foxtail [27]
  G: green foxtail, herbicidal effect grade: 0 (Herbicidal rate of 5% or less (almost no effect))
